Where two headings read alike, the source gives them in different places.
Tested on: bacterial isolates
Conditions: for FIC: Piperacillin + peptide

Substance: W R I W K P K W R L P K W [MBI 11D18CN]
- Gentamicin MIC + Peptide (A. baumannii ABI001): 16 µg/mL
- Peptide MIC + Gentamicin (A. baumannii ABI001): 0.5 µg/mL
- Peptide MIC + Tobramycin (A. baumannii ABI001): 4 µg/mL
- Peptide MIC Alone (A. baumannii ABI001): 64 µg/mL
- Tobramycin MIC + Peptide (A. baumannii ABI001): 4 µg/mL
- Gentamicin MIC + Peptide (A. baumannii ABI002): 8 µg/mL
- Peptide MIC + Gentamicin (A. baumannii ABI002): 2 µg/mL
- Peptide MIC + Tobramycin (A. baumannii ABI002): 0.5 µg/mL
- Peptide MIC Alone (A. baumannii ABI002): 16 µg/mL
- Tobramycin MIC + Peptide (A. baumannii ABI002): 4 µg/mL
- Peptide MIC + Piperacillin (A. calcoaceticus 3): 8 µg/mL
- Peptide MIC Alone (A. calcoaceticus 3): 32 µg/mL
- Piperacillin MIC + Peptide (A. calcoaceticus 3): 8 µg/mL
- Peptide MIC + Piperacillin (E. cloacae 9): 16 µg/mL
- Peptide MIC Alone (E. cloacae 9): 64 µg/mL
- Piperacillin MIC + Peptide (E. cloacae 9): 16 µg/mL
- Peptide MIC + Piperacillin (E. cloacae 10): 8 µg/mL
- Peptide MIC Alone (E. cloacae 10): 32 µg/mL
- Piperacillin MIC + Peptide (E. cloacae 10): 64 µg/mL
- Gentamicin MIC + Peptide (E. coli ECO006): 16 µg/mL
- Peptide MIC + Gentamicin (E. coli ECO006): 0.125 µg/mL
- Mupirocin MIC + Peptide (E. coli SBECO1): 30 µg/mL
- Peptide MIC + Mupirocin (E. coli SBECO1): 0.125 µg/mL
- Peptide MIC Alone (E. coli SBECO1 (Mupirocin section)): 2 µg/mL
- Mupirocin MIC + Peptide (E. coli SBECO2): 30 µg/mL
- Peptide MIC + Mupirocin (E. coli SBECO2): 0.5 µg/mL
- Peptide MIC Alone (E. coli SBECO2 (Mupirocin section)): 16 µg/mL
- Peptide MIC + Vancomycin (E. faecalis EFS001): 2 µg/mL
- Peptide MIC Alone (E. faecalis EFS001): 8 µg/mL
- Vancomycin MIC + Peptide (E. faecalis EFS001): 0.125 µg/mL
- Peptide MIC + Vancomycin (E. faecalis EFS004): 2 µg/mL
- Peptide MIC Alone (E. faecalis EFS004): 8 µg/mL
- Vancomycin MIC + Peptide (E. faecalis EFS004): 0.5 µg/mL
- Gentamicin MIC + Peptide (E. faecalis EFS008): 8 µg/mL
- Peptide MIC + Gentamicin (E. faecalis EFS008): 0.125 µg/mL
- Peptide MIC + Vancomycin (E. faecalis EFS011): 0.125 µg/mL
- Peptide MIC Alone (E. faecalis EFS011): 64 µg/mL
- Vancomycin MIC + Peptide (E. faecalis EFS011): 32 µg/mL
- Peptide MIC + Vancomycin (E. faecalis EFS012): 2 µg/mL
- Peptide MIC Alone (E. faecalis EFS012): 16 µg/mL
- Vancomycin MIC + Peptide (E. faecalis EFS012): 64 µg/mL
- Peptide MIC + Vancomycin (E. faecalis EFS014): 0.5 µg/mL
- Peptide MIC Alone (E. faecalis EFS014): 4 µg/mL
- Vancomycin MIC + Peptide (E. faecalis EFS014): 4 µg/mL
- Gentamicin MIC + Peptide (E. faecium EFM004): 8 µg/mL
- Peptide MIC + Gentamicin (E. faecium EFM004): 0.125 µg/mL
- Peptide MIC + Vancomycin (E. faecium EFM004): 2 µg/mL
- Peptide MIC Alone (E. faecium EFM004): 8 µg/mL
- Vancomycin MIC + Peptide (E. faecium EFM004): 64 µg/mL
- Peptide MIC + Vancomycin (E. faecium EFM009): 0.125 µg/mL
- Peptide MIC Alone (E. faecium EFM009): 8 µg/mL
- Vancomycin MIC + Peptide (E. faecium EFM009): 32 µg/mL
- Peptide MIC + Vancomycin (E. faecium EFM010): 0.25 µg/mL
- Peptide MIC Alone (E. faecium EFM010): 8 µg/mL
- Vancomycin MIC + Peptide (E. faecium EFM010): 64 µg/mL
- Peptide MIC + Vancomycin (E. faecium EFM011): 2 µg/mL
- Peptide MIC Alone (E. faecium EFM011): 8 µg/mL
- Vancomycin MIC + Peptide (E. faecium EFM011): 64 µg/mL
- Peptide MIC + Piperacillin (H. influenzae 3): 8 µg/mL
- Peptide MIC Alone (H. influenzae 3): >128 µg/mL
- Piperacillin MIC + Peptide (H. influenzae 3): 0.25 µg/mL
- Peptide MIC + Piperacillin (H. influenzae SB1): 4 µg/mL
- Peptide MIC Alone (H. influenzae SB1): >128 µg/mL
- Piperacillin MIC + Peptide (H. influenzae SB1): 0.25 µg/mL
- Gentamicin MIC + Peptide (K. pneumonia KP020): 32 µg/mL
- Peptide MIC + Gentamicin (K. pneumonia KP020): 0.125 µg/mL
- Peptide MIC Alone (K. pneumonia KP020 (Gentamicin section)): 32 µg/mL
- Peptide MIC + Piperacillin (P. aeruginosa 23): 8 µg/mL
- Peptide MIC Alone (P. aeruginosa 23): 64 µg/mL
- Piperacillin MIC + Peptide (P. aeruginosa 23): 32 µg/mL
- Peptide MIC + Piperacillin (P. aeruginosa 41): 16 µg/mL
- Peptide MIC Alone (P. aeruginosa 41): >128 µg/mL
- Piperacillin MIC + Peptide (P. aeruginosa 41): 32 µg/mL
- Mupirocin MIC + Peptide (P. aeruginosa PA4): 30 µg/mL
- Peptide MIC + Mupirocin (P. aeruginosa PA4): 64 µg/mL
- Peptide MIC Alone (P. aeruginosa PA4 (Mupirocin section)): 128 µg/mL
- Gentamicin MIC + Peptide (P. aeruginosa PA022): 8 µg/mL
- Peptide MIC + Gentamicin (P. aeruginosa PA022): 0.125 µg/mL
- Peptide MIC Alone (P. aeruginosa PA022 (Gentamicin section)): 8 µg/mL
- Ciprofloxacin MIC + Peptide (P. aeruginosa PA24): 4 µg/mL
- Peptide MI + Ciprofloxacin (P. aeruginosa PA24): 16 µg/mL
- Peptide MI Alone (P. aeruginosa PA24 (Ciprofloxacin section)): >128 µg/mL
- Gentamicin MIC + Peptide (P. aeruginosa PA041): 0.125 µg/mL
- Peptide MIC + Gentamicin (P. aeruginosa PA041): 8 µg/mL
- Peptide MIC Alone (P. aeruginosa PA041 (Gentamicin section)): 64 µg/mL
- Ciprofloxacin MIC + Peptide (P. aeruginosa PA77): 0.5 µg/mL
- Peptide MI + Ciprofloxacin (P. aeruginosa PA77): 32 µg/mL
- Peptide MI Alone (P. aeruginosa PA77 (Ciprofloxacin section)): 128 µg/mL
- Mupirocin MIC + Peptide (P. aeruginosa SBPA1): 100 µg/mL
- Peptide MIC + Mupirocin (P. aeruginosa SBPA1): 32 µg/mL
- Peptide MIC Alone (P. aeruginosa SBPA1 (Mupirocin section)): 128 µg/mL
- FIC (A. calcoaceticus 3): 0.38
- FIC (E. cloacae 9): 0.31

Source: patent US6503881B2 (priority 1996, dated 2003)
